# Assay results as given in publication PMC8397291 (2021).
# Tests used:
# [1] = tested on: VAV-1 (DNA, G4) GGGCAGGGAGGGAACTGGG; assay: fluorescence titration, 1:1 global fit (Bindfit); conditions: 100 mM KCl; 50 mM Tris pH 7.5, 25 °C, 0.6% DMSO; 1.5 μM compound
# [2] = tested on: c-MYC Pu22 (DNA, G4) TGAGGGTGGGTAGGGTGGGTAA; assay: fluorescence titration, 1:1 global fit (Bindfit); conditions: 100 mM KCl; 50 mM Tris pH 7.5, 25 °C, 0.6% DMSO; 1.5 μM compound
# [3] = tested on: Tel-22 (DNA, G4) AGGGTTAGGGTTAGGGTTAGGG; assay: fluorescence titration, 1:1 global fit (Bindfit); conditions: 100 mM KCl; 50 mM Tris pH 7.5, 25 °C, 0.6% DMSO; 1.5 μM compound
# [4] = tested on: BCL-2 (DNA, G4) GGGCGCGGGAGGGAATTGGCGGGG; assay: fluorescence titration, 1:1 global fit (Bindfit); conditions: 100 mM KCl; 50 mM Tris pH 7.5, 25 °C, 0.6% DMSO; 1.5 μM compound
# [5] = tested on: c-KIT 2 (DNA, G4) CCCGGGCGGGCGCGAGGGAGGGGAGG; assay: fluorescence titration, 1:1 global fit (Bindfit); conditions: 100 mM KCl; 50 mM Tris pH 7.5, 25 °C, 0.6% DMSO; 1.5 μM compound
# [6] = tested on: c-MYC Pu22 (DNA, G4) TGAGGGTGGGTAGGGTGGGTAA; assay: fluorescence displacement of 2a; conditions: tracer 2a displaced
# [7] = tested on: Tel-22 (DNA, G4) AGGGTTAGGGTTAGGGTTAGGG; assay: UV-vis and fluorescence titration; conditions: 100 mM KCl; 50 mM Tris pH 7.5, 25 °C; 1.5-3.0 μM compound, up to 5.0 eq. DNA
# [8] = tested on: c-MYC Pu22 (DNA, G4) TGAGGGTGGGTAGGGTGGGTAA; assay: UV-vis and fluorescence titration; conditions: 100 mM KCl; 50 mM Tris pH 7.5, 25 °C; 1.5-3.0 μM compound, up to 5.0 eq. DNA
# [9] = tested on: TBA (DNA, G4) GGTTGGTGTGGTTGG; assay: UV-vis and fluorescence titration; conditions: 100 mM KCl; 50 mM Tris pH 7.5, 25 °C; 1.5-3.0 μM compound, up to 5.0 eq. DNA
# [10] = tested on: c-MYC Pu24T (DNA, G4) TGAGGGTGGTGAGGGTGGGGAAGG; assay: 1D 1H NMR titration, imino shifts; conditions: 10 mM potassium phosphate, 35 mM KCl; pH 7.4, 298 K; 90 μM DNA, up to 5 eq. 2a
# [11] = tested on: c-MYC sG4 (DNA, G4) GGGTGGGTAGGGTGGG; assay: fluorescence titration, 1:1 global fit (Bindfit); conditions: 100 mM KCl; 50 mM Tris pH 7.5, 25 °C, 0.6% DMSO; 1.5 μM compound
binding [6],binding [7],binding [8],binding [9],Compound,Kd [1] [µM],Kd [2] [µM],Kd [3] [µM],Kd [4] [µM],Kd [5] [µM],binding [10],Kd [11] [µM]
,,,,N=C(N)c1cc2cc3c4c(c2oc1=O)CCCN4CCC3,0.3,0.3,3.8,0.5,0.7,,
yes,,,,C[n+]1cc(NC(=O)c2ccc3ccc4ccc(C(=O)Nc5cc6ccccc6[n+](C)c5)nc4c3n2)cc2ccccc21,,,,,,,
,no,no,no,N=C(N)c1cc2ccc(O)cc2oc1=O,,,,,,,
,,,,CCN(CC)c1ccc2cc(C(=N)N)c(=O)oc2c1,15.0,13.0,45.2,14.6,9.1,yes,12.6
